Experimental data from patent US20080146602A1, “Thienopyridine Derivatives, Production Method and Use Thereof” (TAKEDA PHARMACEUTICAL COMPANY LIMITED, priority 2004, published 2008).
Marks after values point to notes of the source that are not given here.

What was measured:
[1] = test system: Adjuvant Arthritis in Rat; assay: Effect on adjuvant arthritis in rat (footpad swelling suppression); format: in vivo; conditions: male Lewis rat, Freund's complete adjuvant; 0.3 mg/kg orally once a day for 14 days; edema volume of left hind paw, Day 14; n=6
Procedure: Effect on Adjuvant Arthritis in Rat
A male Lewis rat (7-week-old, Crea Japan Ltd.) was sensitized by an intracutaneous injection of 0.05 ml of Freund's complete adjuvant: 0.5% liquid paraffin suspension of dead tubercle bacillus) into the footpad of the right hind paw, and the test compound suspended in 0.5% methyl cellulose was orally administered once a day for 14 days. Immediately before sensitization (Day 0) and 14th day (Day 14), the edema volume of the left hind paw was measured by a plethysmometer (manufactured by Ugo Basile, Italy) and the footpad swelling suppression rate (%) relative to unsensitized rat was determined by the following formula.
The results are shown in mean ±S.E. of each group (n=6) and compared and detected by the Dunnett's method. In addition, less than 5% of the critical rate was taken as significant.

Compound	Swelling suppression rate (%) [1]	melting point
COc1ccc(-c2c(Cl)c(CN3C(=O)CCC3=O)nc3sc4c(c23)CC[C@@H](C(N)=O)C4)cc1 (stereo in doubt) [Example 5-2, 3-chloro-2-[(2,5-dioxo-1-pyrrolidinyl)methyl]-5,6,7,8-tetrahydro-4-(4-methoxyphenyl)[1]benzothieno[2,3-b]pyridine-7-carboxamide]	88* %	–
COc1ccc(-c2c(Cl)c(CN3C(=O)CSC3=O)nc3sc4c(c23)CC[C@@H](C(N)=O)C4)cc1 (stereo in doubt) [Example 6-2, 3-chloro-2-[(2,4-dioxo-1,3-thiazolidin-3-yl)methyl]-5,6,7,8-tetrahydro-4-(4-methoxyphenyl)[1]benzothieno[2,3-b]pyridine-7-carboxamide]	87* %	–
COc1ccc(-c2c(Cl)c(CN3C(=O)COC3=O)nc3sc4c(c23)CC[C@H](C(N)=O)C4)cc1 [Example 4-2, (7S)-3-chloro-2-[(2,4-dioxo-1,3-oxazolidin-3-yl)methyl]-5,6,7,8-tetrahydro-4-(4-methoxyphenyl)[1]benzothieno[2,3-b]pyridine-7-carboxamide]	82* %	–
NC(=O)[C@H]1CCc2c(sc3nc(CN4C(=O)CCC4=O)c(Cl)c(-c4ccc(O)cc4)c23)C1 [Example 8, (7S)-3-Chloro-2-[(2,5-dioxo-1-pyrrolidinyl)methyl]-5,6,7,8-tetrahydro-4-(4-hydroxyphenyl)[1]benzothieno[2,3-b]pyridine-7-carboxamide]	–	299 to 300 °C
NC(=O)[C@H]1CCc2c(sc3nc(CN4C(=O)CSC4=O)c(Cl)c(-c4ccc(O)cc4)c23)C1 [Example 9, (7S)-3-Chloro-2-[(2,4-dioxo-1,3-thiazolidin-3-yl)methyl]-5,6,7,8-tetrahydro-4-(4-hydroxyphenyl)[1]benzothieno[2,3-b]pyridine-7-carboxamide]	–	282 to 283 °C
